Test results published in ChEMBL document CHEMBL1145742, “Investigation of an antibody-ligase. Evidence for strain-induced catalysis” (Bioorg Med Chem Lett, 2003).

Legend:
[1] = Kinetic parameter Kcat against monoclonal antibody 16 G3
[2] = Kinetic parameter Kuncat against monoclonal antibody 16 G3
[3] = Kinetic parameter Vmax against monoclonal antibody 16 G3
[4] = Kinetic parameter KM against monoclonal antibody 16 G3
[5] = Kinetic parameter effective molarity against monoclonal antibody 16 G3
[6] = Substrate specificity, the ratio of Kcat to that of Km was determined against monoclonal antibody 16 G3

Structure (SMILES) | k cat [1] [s⁻¹] | Kuncat [2] [M⁻¹ s⁻¹] | Vmax [3] [µM/min] | Km [4] [µM] | Molarity [5] [M] | Substrate specificity [6]
O=C(O)CCCC(=O)N[C@H](C(=O)Oc1ccc([N+](=O)[O-])cc1)C1CCCCC1 | 0.00167 | 0.000833 | 1 | 300 | 2 | 3
O=C(O)CCCC(=O)N[C@@H](Cc1ccccc1)C(=O)Oc1ccc([N+](=O)[O-])cc1 | 0.01 | 0.000667 | 6 | 100 | 15 | 6
NC(=O)[C@H](N)Cc1c[nH]c2ccccc12 | – | – | – | 900 | – | –
